Data on 62 compounds can be found in a melting point compilation (Tetko et al.; mined from patent text by program, amines drawn as free bases though some values may be those of a salt).

As to `BrC(c1ccccc1)(c1ccccc1)C1(c2ccccc2)OCCO1`, the melting point was 206 °C. For `O=[N+]([O-])c1cc(Sc2ccc(Cl)cc2)[nH]c1-c1ccc(Cl)cc1`, the melting point lay within 195 to 197 °C. The compound `C[C@H](c1ccccc1)n1c(=O)[nH]c2ncc(-c3ccc(-c4nc[nH]n4)cc3)nc21` showed a melting point of 258 to 260 °C. To `CCC(=O)NCCC1=C(Cc2ccccc2)Cc2ccc(OC)cc21` belongs 149 to 151 °C; to `Cn1c(=O)ccc2cc(COc3cc(F)cc(C4(SC(C)(C)C)CCOCC4)c3)ccc21`, 54 to 56 °C. `CC(C)Sc1cc2c(cc1Cl)N=C(C(N)=O)NS2(=O)=O` came in with a melting point of 279 to 280 °C.

Regarding `Cn1cncc1C(N)(c1ccc(Cl)cc1)c1ccc2c(c1)c(-c1nc(-c3ccccc3)cs1)cc(=O)n2C` (configuration not stated), the melting point turned out to be 237 °C.

With `COc1ccc(Cc2c(C(=O)O)n(CC3CC3)c3ccccc23)cc1`, the melting point was in the range of 162 to 163 °C. To `CSC(=CC(=O)C(F)(F)F)SC` belongs 97 °C. In turn, `COC(=O)c1ccc(N)c(NC(=O)c2ccc(C(C)(C)C)cc2)c1` showed a melting point of 175 °C. To `O=[N+]([O-])c1cc(Cl)c(OCc2ccccc2-c2ccccc2)c(Cl)c1` belongs 83 to 84.5 °C; to `CCOC1Nc2c(ccc(OC)c2O)C(=O)N2CCCC12` (configuration not stated), 155 to 158 °C.

Compound `CCc1c(-c2ccc(OC)cc2)c2c(C(=O)OC)c(C(=O)OC)c3cc(OC)cc1n32` gave a melting point of 153 to 155 °C.

For `CCCCOC(=O)C=Cc1ccc(C=CC(=O)OCCCC)c2nsnc12`, the melting point was in the range of 90 to 94 °C.

For `Cn1c(C(F)(F)F)cc(=O)n(-c2cc(OCCNC=O)c(Cl)cc2F)c1=O`, the melting point was 128 to 131 °C.

The compound `CC(=O)C(=NNc1ccc(C)cc1)Sc1ccc(Cl)cc1` had a melting point of 133 to 136 °C.

Compound `O=C1c2ccccc2S(=O)(=O)N1COc1ccc([N+](=O)[O-])cc1` gave a melting point of 162 to 164 °C.

In turn, `O=C(O)c1cc2cc(Cl)ccc2nc1NC(COCc1ccccc1)C(=O)Nc1ccccc1` (configuration not stated) gave a melting point of 150 to 151 °C.

Compound `COc1cc(-c2nc(-c3ccc(N(C)C)cc3)c(C)[nH]2)ccc1OC(C)=O` displayed a melting point of 253 to 256 °C. To `CCCCCN1C(=O)C2CC2(c2ccc(N)cc2)C1=O` (configuration not stated) belongs 113 to 115 °C; to `CCOCC1(F)CCN([C@@H](c2ccc(C(F)(F)F)cc2CN(Cc2cc(C(F)(F)F)cc(C(F)(F)F)c2)c2nnn(C)n2)C(C)C)CC1`, 95 °C. To `CC1=C(C(=O)OCCN(C)Cc2ccccc2)C(c2cccc([N+](=O)[O-])c2)C(P2(=O)OCCCO2)=C(C)N1` (configuration not stated) belongs 139 to 140 °C. As for `NS(=O)(=O)c1ccc(N2CN(c3ccccc3)CC2=O)c(Br)c1`, the melting point was 193 to 200 °C. To `O=C1C(=O)c2ccccc2C2=C1SCC1(CCN(C3CCCC3O)CC1)O2` (configuration not stated) belongs 110 to 113 °C; to `O=S1(=O)NC(C2CCCCC2)Nc2ccc(S(=O)(=O)N3CCOCC3)cc21` (configuration not stated), 262 to 264 °C; to `CC(=O)OCc1c(-c2cc(Nc3cc(CN4CCC4)n(C)n3)c(=O)n(C)n2)cccc1-n1ncc2cc(C(C)(C)C)cc(F)c2c1=O`, 214 to 217 °C. To `COc1c(C2=NC(C)(C)CO2)ccc(C2=NC(C)(C)CO2)c1OC` belongs 84.5 to 85.5 °C; to `CC(=NO)C1=CCCN(Cc2ccccc2)C1`, 103 to 105 °C; to `CN1CCC(OC2c3ccccc3CCn3c2nc(-c2ccccc2)c3C(=O)O)CC1` (configuration not stated), 185 °C. To `COc1cc(NC(=O)Nc2ccccc2)ccn1` belongs 127 to 129 °C; to `COC(=O)c1ccc2c(c1)N(C(=O)N1CCC(c3cccnc3)C1)CCO2` (configuration not stated), 61 °C; to `COc1cc(OC)nc(-c2ccc(C)cc2)n1`, 61 to 62 °C.

Take `O=C(O)c1ccccc1Nc1ccc(CCCc2ccc(Cl)c(Cl)c2)cc1`: the melting point was 120 to 126 °C. To `O=[N+]([O-])c1ccc(NC2CC2)nc1Nc1ccc2[nH]ncc2c1` belongs 237 to 240 °C; to `CC(C)c1cc(-c2ccc(F)c3ccccc23)nc(Nc2ccccc2)n1`, 85.7 to 86.3 °C; to `COCCc1nc2c(N)nc3ccccc3c2n1CCOCCNC(=O)N1CCOCC1`, 164 to 166 °C.

For the compound `COC(=O)C1SC=CC1Sc1ccccc1` (configuration not stated), the melting point was in the range of 43 to 45 °C. As to `COC(=O)c1cc2ccc(OC)cc2n1CCN1CCC(NCc2cc3c(cn2)OCCO3)CC1`, the melting point amounted to 130 °C. With `C/C(=C\CC1OC(=O)NC1=O)c1cccc(OCc2nc(-c3ccc(OC(F)(F)F)cc3)oc2C)c1` (configuration not stated), the melting point is 105 to 106 °C.

Consider `OC(COc1ccc(F)cc1)CN1CCC(O)(c2ccc(Cl)cc2)CC1` (configuration not stated), for which the melting point fell in the range of 103 to 105 °C. To `Clc1ccc2c(c1)N=C(N1CCN[C@@H](Cc3ccccc3)C1)c1ccccc1N2` belongs 79 to 92 °C; to `CN(C)c1cnn(-c2ccccc2)c(=O)c1N`, 188 to 189 °C. To `O=S(=O)(c1ccc(OCCO)cc1)C(Br)(Br)Br` belongs 157 to 162 °C; to `C[C@H]1CCCC(C)(C)[C@@H]1C(=O)c1c(F)c(F)c(F)c(F)c1F`, 35.2 to 38 °C; to `CCOC(=O)C1(C(=O)Nc2ccc(Br)cc2C)CCC1`, 61 to 64 °C. The figure for `O=C1c2nccnc2C(O)N1c1ccc2ccc(Cl)nc2n1` (configuration not stated) is 270 °C; for `N#Cc1ccc(N2CCN(c3ccc(O)cc3)CC2)cc1` it is 258 to 262 °C. `C=CCNc1nc(NCC=C)c2scc(CC)c2n1` yielded a melting point of 55 °C.

On to `CCCOc1ccc(CO)cc1N`, for which the melting point lay within 94 to 95 °C.

With `CCCCCCCCCC(=O)Cc1ccc(OCc2ccccc2)c(OCc2ccccc2)c1`, the melting point was found to be 68 °C. The figure for `CCCCCCCCCCCCCCCC(N=C=O)S(=O)(=O)c1ccc2ccccc2c1` (configuration not stated) is 152 to 155 °C; for `O=c1oc2c(c(O)c1C(c1ccccc1)C1CC1)CCCCCCCC2` (configuration not stated) it is 87.6 to 90.4 °C; for `CC(C)(C)c1cc(NC(=O)NCc2ccc(N)cc2)cc(C(C)(C)C)c1O` it is 194 to 195 °C. Compound `CN1C(=O)CCC2(C)c3ccc(Sc4nccc5ccccc45)cc3CCC12` (configuration not stated) had a melting point of 196 to 199 °C.

On to `CS(=O)(=O)c1ccc(C(CC2CCCC2)C(=O)Nc2ccc(C(=O)O)cn2)cc1` (configuration not stated), for which the melting point was 191 to 193 °C. To `Cc1nc2cccc(S(=O)(=O)n3c(CCC(=O)O)cc4cc(Cl)ccc43)c2s1` belongs 188 to 189 °C; to `CC(C)(COc1ccc(CSC2NC(=O)CC2=O)cc1)c1ccccc1` (configuration not stated), 107 to 108 °C; to `C/C=C/c1ccc2c(NCc3ccc(NC(=O)c4ccc(Cl)nc4)cc3)nc(N(C)C)nc2c1`, 185 °C. The figure for `O=C1CCC(c2ccc(OC3CCN(C4CCC4)CC3)cc2F)=NN1` is greater than 300 °C; for `COCc1nc2c(N)nc3ccccc3c2n1Cc1ccccc1` it is 202 to 204 °C. To `COc1ccc(C(=O)O)cc1C12CC3CC(CC(C3)C1)C2` belongs 238 to 239 °C.

In turn, `CCOC(=O)C1CSC(c2nsc3ccc(-n4c(=O)cc(C(F)(F)F)n(C)c4=O)cc23)N1` (configuration not stated) gave a melting point of 97 to 98 °C.

As usually defined, the melting point is the temperature of the solid-liquid transition.
